According to patent publication US20150152088A1, “ALKYNYL HETEROAROMATIC COMPOUND AND USE THEREOF” (Nanjing Sanhome Pharmaceutical Co., Ltd., priority 2012, published 2015):

What was measured:
[1] = tested on: Saos-2 human osteosarcoma cells; experiment: MTT assay, in vitro inhibitory activity on cells; type: cell-based; settings: typically 48 hours
Text: (§1) In this example, MTT assay was used to detect in vitro inhibitory activity of the compounds prepared according to the above examples on the cells. […] AP24534 was purchased from Shanghai Xinkuo Chemical Technology Co., Ltd., China.
(§2) Dimethyl sulfoxide (DMSO) is capable of dissolving formazan in cells, and absorbance value can be measured at a wavelength of 490 nm by an enzyme-linked immunometric meter, which reflects the number of living cells. Within a certain range of the number of cells, the amount of MTT crystals formed is proportional to the number of living cells.
(§3) 1. […] 2. Culturing in a 37° C., 5% CO2 incubator and keeping the cells adhering to the wall of the well. 3. […] 4. Carefully removing the supernatant, gently washing with PBS and discarding the supernatant again. 5. […] 6. Terminating culturing and carefully discarding the medium in each well. 7. Adding 150 μl dimethyl sulfoxide into each well, shaking for 10 minutes at low speed in a shaker, to make crystals fully dissolved. 8. Measuring the absorbance of each well at 490 nm by an enzyme-linked immunometric meter. 9. Calculating IC50 values.

[2] = tested on: Ovcar-3 human ovarian cancer cells; experiment: MTT assay, in vitro inhibitory activity on cells; type: cell-based; settings: typically 48 hours
Text: as §1, §2, §3

[3] = tested on: MDA-MB-231 human breast cancer cells; experiment: MTT assay, in vitro inhibitory activity on cells; type: cell-based; settings: typically 48 hours
Text: as §1, §2, §3

[4] = tested on: K562 chronic myelogenous leukemia cells; experiment: MTT assay, in vitro inhibitory activity on cells; type: cell-based; settings: Homo sapiens, K562, 48 h, typically 48 hours
Text: as §1, §2, §3

Human ABL1 (T315I) = target: T1, Human ABL1 (T315I) (Homo sapiens, UniProt P00519, T315I); experiment: ABL1 (T315I) kinase activity, [γ-33P] ATP / Abltide radiometric assay; type: biochemical; settings: ATP 1.0 μM, 120 minutes, room temperature
T1 construct: purchased Millipore Corporation, USA #14-522
Procedure: Kinase activity was determined according to the manufacturer's instructions. Peptide substrate is Abltide ([…]), purchased from Millipore Corporation, USA. Ion exchange chromatography paper P81 was purchased from Whatman Company, UK. [γ-33P] ATP was purchased from Perkin Elmer Company.
[γ-33P] ATP was added at room temperature, with final concentration of 1.0 μM, and the reaction was performed for 120 minutes. 20 μl aliquots were transferred onto the ion exchange chromatography paper P81. The paper was thoroughly washed with a 0.75% phosphoric acid solution three times, and then washed with acetone once. Finally, γ-33P radioactivity was measured.

[5] = tested on: MEG-01 human megakaryocyte leukemia cells; experiment: CellTiter-Glo cell viability assay on Bcr-Abl-positive cells; type: cell-based; settings: 72 hours
Procedure: Each compound was dissolved in DMSO to 10 mM, diluted to 50 μM with complete medium, and then diluted to 10 μM with 0.1% DMSO in complete medium. The resulting solution was 10-fold serially diluted and formulated into 10 concentrations.
MEG-01 human megakaryocyte leukemia cells and KU812 human peripheral blood basophilic leukocytes, purchased from ATCC Company, USA.
6) Calculating cell viability (Cell Viability)=(RLUsample/RLUnegative)×100%, wherein RLUsample was RLU (Relative Light Units) value of the well added with the compound and RLUnegative was RLU value of the well without the compound (that is, cell control, which was treated with the same concentration of DMSO). Data were processed by using a four-parameter logistic fitting module in Graphpad Prism 4.0 software to calculate IC50.

[6] = tested on: KU812 human peripheral blood basophilic leukocytes; experiment: as above; settings: KU812, 72 h, read-out: IC50 KU812

Structure (SMILES) | IC50 [1] [nM] | IC50 [2] [nM] | IC50 [3] [nM] | IC50 [4] [nM] | IC50 (Human ABL1 (T315I)) [nM] | IC50 [5] [nM] | IC50 [6] [nM]
Cc1ccc(C(=O)Nc2ccc(CN3CCN(C)CC3)c(C(F)(F)F)c2)cc1C#Cc1ccc2cncnc2c1 [Example 3, 3-((quinazolin-7-yl)ethynyl)4-methyl-N-[4-((4-methylpiperazin-1-yl)methyl)-3-trifluoromethylphenyl]benzamide] | 1070 | 4470 | 2450 | 1340 | 4.51 |  | 
Cc1ccc(C(=O)Nc2ccc(CN3CCN(C)CC3)c(C(F)(F)F)c2)cc1C#Cc1cccc2ncncc12 [Example 4, 3-((quinazolin-5-yl)ethynyl)-4-methyl-N-[4-((4-methylpiperazin-1-yl)methyl)-3-trifluoromethylphenyl]benzamide] | 1590 | 6230 | 1300 | 2440 | 2.3 |  | 
Cc1ccc(C(=O)Nc2ccc(CN3CCN(C)CC3)c(C(F)(F)F)c2)cc1C#Cc1ccc2c(=O)[nH]cnc2c1 [Example 9, 3-((4-oxo-3,4-dihydroquinazolin-7-yl)ethynyl)-4-methyl-N-[4-((4-methylpiperazin-1-yl)methyl)-3-trifluoromethylphenyl]benzamide] |  |  |  | 5340 | 5.8 | 1.49 | 0.518
Cc1ccc(C(=O)Nc2ccc(CN3CCN(C)CC3)c(C(F)(F)F)c2)cc1C#Cc1ccc2c(N)ncnc2c1 [Example 13, 3-((4-aminoquinazolin-7-yl)ethynyl)-4-methyl-N-[4-((4-methylpiperazin-1-yl)methyl)-3-trifluoromethylphenyl]benzamide] |  |  |  | 4120 | 9.5 | 3.56 | 1.17
